{"source": "patent US20090169652A1", "about": "“Personal Care Compositions” (priority 2007, published 2009)", "key": {"[1]": {"test_system": "MatTek human skin equivalent culture model", "experiment": "collagen expression in MatTek human skin equivalent culture model", "assay_type": "cell-based"}, "[2]": {"test_system": "Xgene human skin equivalent culture model", "experiment": "collagen expression in Xgene human skin equivalent culture model", "assay_type": "cell-based"}, "skin": {"test_system": "skin", "experiment": "clinical study of skin condition", "assay_type": "in vivo", "conditions": "clinical study by applicant"}}}
{"smiles": "CC(=O)C1C(=O)C=C(C)OC1=O", "note": "(stereo not shown) [SDA, sodium dehydroacetic acid]", "values": [{"measurement": "collagen expression", "setting": "[1]", "value": "up-regulated collagen expression"}, {"measurement": "collagen expression", "setting": "[2]", "value": "up-regulated collagen expression"}, {"measurement": "appearance of fine lines and wrinkles", "setting": "skin", "value": "unexpected improvement in the appearance of fine lines and wrinkles"}, {"measurement": "skin condition related to reduced oil", "setting": "skin", "value": "expected improvements in skin condition related to reduced oil"}]}
